Converted amounts (≈) assume the structure as drawn.
Tests used:
[1] = system: Pseudomonas aeruginosa; assay: Antibacterial activity against Pseudomonas aeruginosa ATCC 9027 at 10 ug/mL after 24 hrs by disc diffusion method; format: functional; details: ATCC 9027, 24 h, read-out: IZ
[2] = system: Lysinibacillus sphaericus; assay: Antibacterial activity against Bacillus sphaericus ATCC 7031 at 10 ug/mL after 24 hrs by disc diffusion method; format: functional; details: ATCC 7031, 24 h, read-out: IZ
[3] = system: Staphylococcus aureus; assay: Antibacterial activity against Staphylococcus aureus ATCC 6538 by twofold serial dilution technique; format: functional
[4] = system: Escherichia coli; assay: Antibacterial activity against Escherichia coli ATCC 35218 at 10 ug/mL after 24 hrs by disc diffusion method; format: functional; details: ATCC 35218, 24 h, read-out: IZ
[5] = system: Bacillus subtilis; assay: Antibacterial activity against Bacillus subtilis ATCC 6631 at 10 ug/mL after 24 hrs by disc diffusion method; format: functional; details: ATCC 6631, 24 h, read-out: IZ
[6] = system: Salmonella typhi; assay: Antibacterial activity against Salmonella typhi ATCC 6539 at 10 ug/mL after 24 hrs by disc diffusion method; format: functional, Salmonella enterica subsp. enterica serovar Typhi; details: Salmonella enterica, ATCC 6539, 24 h; read-out: IZ
[7] = system: Candida albicans; assay: Antifungal activity against Candida albicans PYCC 3436 at 10 ug/mL after 72 hrs by agar cup plate method; format: functional; details: PYCC 3436, 72 h, read-out: IZ
[8] = system: Aspergillus niger; assay: Antifungal activity against Aspergillus niger ATCC 16404 by twofold serial dilution technique; format: functional
[9] = system: Bacillus subtilis; assay: Antibacterial activity against Bacillus subtilis ATCC 6631 by twofold serial dilution technique; format: functional
[10] = system: Aspergillus niger; assay: Antifungal activity against Aspergillus niger ATCC 16404 at 10 ug/mL after 72 hrs by agar cup plate method; format: functional; details: ATCC 16404, 72 h, read-out: IZ
[11] = system: Staphylococcus aureus; assay: Antibacterial activity against Staphylococcus aureus ATCC 6538 at 10 ug/mL after 24 hrs by disc diffusion method; format: functional; details: ATCC 6538, 24 h, read-out: IZ
[12] = system: Candida albicans; assay: Antifungal activity against Candida albicans PYCC 3436 by twofold serial dilution technique; format: functional
[13] = system: Aspergillus fumigatus; assay: Antifungal activity against Aspergillus fumigatus ATCC 28212 by twofold serial dilution technique; format: functional
[14] = system: Salmonella typhi; assay: Antibacterial activity against Salmonella typhi ATCC 6539 by twofold serial dilution technique; format: functional, Salmonella enterica subsp. enterica serovar Typhi; details: Salmonella enterica
[15] = system: Candida albicans; assay: Antifungal activity against Candida albicans ATCC 90028 at 10 ug/mL after 72 hrs by agar cup plate method; format: functional; details: ATCC 90028, 72 h, read-out: IZ
[16] = system: Lysinibacillus sphaericus; assay: Antibacterial activity against Bacillus sphaericus ATCC 7031 by twofold serial dilution technique; format: functional
[17] = system: Escherichia coli; assay: Antibacterial activity against Escherichia coli ATCC 35218 by twofold serial dilution technique; format: functional
[18] = system: Pseudomonas aeruginosa; assay: Antibacterial activity against Pseudomonas aeruginosa ATCC 9027 by twofold serial dilution technique; format: functional
[19] = system: Aspergillus fumigatus; assay: Antifungal activity against Aspergillus fumigatus ATCC 28212 at 10 ug/mL after 72 hrs by agar cup plate method; format: functional; details: ATCC 28212, 72 h, read-out: IZ
[20] = system: Candida albicans; assay: Antifungal activity against Candida albicans ATCC 90028 by twofold serial dilution technique; format: functional

Structure (SMILES): c1ccc(CN2C(c3ccccc3)C3=C(NOC3c3ccccn3)C3CCCCC32)cc1 (stereo not given)
- zone of inhibition at 10 µg/mL [1]: 7 mm
- zone of inhibition at 10 µg/mL [2]: 16 mm
- MIC99 [3]: 50 µg/mL (≈ 118 µM)
- zone of inhibition at 10 µg/mL [4]: 7 mm
- zone of inhibition at 10 µg/mL [5]: 6 mm
- zone of inhibition at 10 µg/mL [6]: 11 mm
- zone of inhibition at 10 µg/mL [7]: 18 mm
- MIC99 [8]: 100 µg/mL (≈ 236 µM)
- MIC99 [9]: 50 µg/mL (≈ 118 µM)
- zone of inhibition at 10 µg/mL [10]: 10 mm
- zone of inhibition at 10 µg/mL [11]: 12 mm
- MIC99 [12]: 12.5 µg/mL (≈ 29.5 µM)
- MIC99 [13]: 12.5 µg/mL (≈ 29.5 µM)
- MIC99 [14]: 50 µg/mL (≈ 118 µM)
- zone of inhibition at 10 µg/mL [15]: 18 mm
- MIC99 [16]: 25 µg/mL (≈ 59 µM)
- MIC99 [17]: 25 µg/mL (≈ 59 µM)
- MIC99 [18]: 12.5 µg/mL (≈ 29.5 µM)
- zone of inhibition at 10 µg/mL [19]: 7 mm
- MIC99 [20]: 50 µg/mL (≈ 118 µM)

From ChEMBL document CHEMBL1926636, “Isoxazoles incorporated N-substituted decahydroquinolines: a precursor to the next generation antimicrobial drug” (2012)
